Results from patent publication US20160326142A1, “PYRAZOLE CARBOXAMIDE COMPOUNDS, COMPOSITIONS AND METHODS OF USE” (Genentech, Inc., priority 2012, published 2016).
pKi: −log10 of the molar value.

biological target: T1, ITK (Homo sapiens, UniProt Q08881); experiment: ITK enzyme assay (Caliper or LCMS peptide phosphorylation); format: biochemical; conditions: purified ITK (Invitrogen PV3875), 20 μM ATP, Ki by Morrison's quadratic equation
T1 construct: purchased Invitrogen PV3875
T1 sequence (Q08881 1-620): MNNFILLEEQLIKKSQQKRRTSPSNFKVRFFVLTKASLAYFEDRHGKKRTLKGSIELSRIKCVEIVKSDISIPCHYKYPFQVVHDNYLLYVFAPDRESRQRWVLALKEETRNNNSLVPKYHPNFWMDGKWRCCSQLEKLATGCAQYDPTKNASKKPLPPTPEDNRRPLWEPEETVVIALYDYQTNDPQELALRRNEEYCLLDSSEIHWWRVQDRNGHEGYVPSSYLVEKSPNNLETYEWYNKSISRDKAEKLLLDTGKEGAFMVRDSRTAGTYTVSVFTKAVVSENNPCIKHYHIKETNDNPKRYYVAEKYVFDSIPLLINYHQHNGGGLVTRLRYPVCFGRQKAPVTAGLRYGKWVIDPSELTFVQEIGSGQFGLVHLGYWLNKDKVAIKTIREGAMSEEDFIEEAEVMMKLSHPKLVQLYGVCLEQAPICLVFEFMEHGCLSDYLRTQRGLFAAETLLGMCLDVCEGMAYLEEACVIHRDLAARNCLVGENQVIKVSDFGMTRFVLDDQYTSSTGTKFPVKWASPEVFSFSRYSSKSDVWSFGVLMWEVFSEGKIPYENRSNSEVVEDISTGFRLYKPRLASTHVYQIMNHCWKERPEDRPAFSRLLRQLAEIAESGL
Outline: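 Purified human ITK peptide phosphorylation, quenched with EDTA (50 mM final) for Caliper LabChip separation or TCA (5% v/v final) for UPLC-MS/MS MRM quantification. Ki derived via Morrison tight-binding equation, corrected for competitive inhibition using ATP concentration relative to Km,app.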

Compound	pKi
CC1(C)CCc2c(C(=O)Nc3cnn(C(CN4CCOCC4=O)c4ccccc4)c3)n[nH]c2C1 (single isomer, unassigned) [Example 77a, 6,6-dimethyl-N-(1-(2-(3-oxomorpholino)-1-phenylethyl)-1H-pyrazol-4-yl)-4,5,6,7-tetrahydro-1H-indazole-3-carboxamide]	7.70
CC1(C)CCc2c(C(=O)Nc3cnn(C(CN4CCOCC4=O)c4ccccc4)c3)n[nH]c2C1 (single isomer, unassigned) [Example 77b, 6,6-dimethyl-N-(1-(2-(3-oxomorpholino)-1-phenylethyl)-1H-pyrazol-4-yl)-4,5,6,7-tetrahydro-1H-indazole-3-carboxamide]	8.70
O=C(Nc1cnn(Cc2ccccc2)c1)c1n[nH]c2c1CC1(CCOC1)C2 (single isomer, unassigned) [Example 79a, N-(1-benzyl-1H-pyrazol-4-yl)-4,4′,5′,6-tetrahydro-1H,2′H-spiro[cyclopenta[c]pyrazole-5,3′-furan]-3-carboxamide]	7.34
O=C(Nc1cnn(Cc2ccccc2)c1)c1n[nH]c2c1CC1(CCOC1)C2 (single isomer, unassigned) [Example 79b, N-(1-benzyl-1H-pyrazol-4-yl)-4,4′,5′,6-tetrahydro-1H,2′H-spiro[cyclopenta[c]pyrazole-5,3′-furan]-3-carboxamide]	7.02
CC1(C)CCc2c(C(=O)Nc3cnn(C(c4nccs4)C4CCSCC4)c3)n[nH]c2C1 (single isomer, unassigned) [Example 85a, 6,6-dimethyl-N-(1-((tetrahydro-2H-thiopyran-4-yl)(thiazol-2-yl)methyl)-1H-pyrazol-4-yl)-4,5,6,7-tetrahydro-1H-indazole-3-carboxamide]	9.22
CC1(C)CCc2c(C(=O)Nc3cnn(C(c4nccs4)C4CCSCC4)c3)n[nH]c2C1 (single isomer, unassigned) [Example 85b, 6,6-dimethyl-N-(1-((tetrahydro-2H-thiopyran-4-yl)(thiazol-2-yl)methyl)-1H-pyrazol-4-yl)-4,5,6,7-tetrahydro-1H-indazole-3-carboxamide]	9.05
CC1(C)CCc2c(C(=O)Nc3cnn(C(c4nccs4)C4CCS(=O)(=O)CC4)c3)n[nH]c2C1 (single isomer, unassigned) [Example 87a, N-(1-((1,1-dioxidotetrahydro-2H-thiopyran-4-yl)(thiazol-2-yl)methyl)-1H-pyrazol-4-yl)-6,6-dimethyl-4,5,6,7-tetrahydro-1H-indazole-3-carboxamide]	9.40
CC1(C)CCc2c(C(=O)Nc3cnn(C(c4nccs4)C4CCS(=O)(=O)CC4)c3)n[nH]c2C1 (single isomer, unassigned) [Example 87b, N-(1-((1,1-dioxidotetrahydro-2H-thiopyran-4-yl)(thiazol-2-yl)methyl)-1H-pyrazol-4-yl)-6,6-dimethyl-4,5,6,7-tetrahydro-1H-indazole-3-carboxamide]	9.00
CC1(C)Cc2[nH]nc(C(=O)Nc3cnn(Cc4ccccc4)c3)c2CC1C#N (single isomer, unassigned) [Example 90a, N-(1-benzyl-1H-pyrazol-4-yl)-5-cyano-6,6-dimethyl-4,5,6,7-tetrahydro-1H-indazole-3-carboxamide]	6.24
CC1(C)Cc2[nH]nc(C(=O)Nc3cnn(Cc4ccccc4)c3)c2CC1C#N (single isomer, unassigned) [Example 90b, N-(1-benzyl-1H-pyrazol-4-yl)-5-cyano-6,6-dimethyl-4,5,6,7-tetrahydro-1H-indazole-3-carboxamide]	8.00
CC12Cc3[nH]nc(C(=O)Nc4cnn(C(CS(C)(=O)=O)c5cccnc5)c4)c3CC1C2 (single isomer, unassigned) [Example 93a, 5a-methyl-N-(1-(2-(methylsulfonyl)-1-(pyridin-3-yl)ethyl)-1H-pyrazol-4-yl)-1,4,4a,5,5a,6-hexahydrocyclopropa[f]indazole-3-carboxamide]	> 10.00

Second part, the compound after the results:

pKi	Compound
7.59	CC(C1CCOCC1)n1cc(NC(=O)c2n[nH]c3c2CCC(C)(C)C3)cn1 (single isomer, unassigned) [Example 78a, 6,6-dimethyl-N-(1-(1-(tetrahydro-2H-pyran-4-yl)ethyl)-1H-pyrazol-4-yl)-4,5,6,7-tetrahydro-1H-indazole-3-carboxamide]
8.22	CC(C1CCOCC1)n1cc(NC(=O)c2n[nH]c3c2CCC(C)(C)C3)cn1 (single isomer, unassigned) [Example 78b, 6,6-dimethyl-N-(1-(1-(tetrahydro-2H-pyran-4-yl)ethyl)-1H-pyrazol-4-yl)-4,5,6,7-tetrahydro-1H-indazole-3-carboxamide]
8.70	CC1(C)CCc2c(C(=O)Nc3cnn(C(CCC#N)c4cccnc4)c3)n[nH]c2C1 (single isomer, unassigned) [Example 80a, N-(1-(3-cyano-1-(pyridin-3-yl)propyl)-1H-pyrazol-4-yl)-6,6-dimethyl-4,5,6,7-tetrahydro-1H-indazole-3-carboxamide]
8.70	CC1(C)CCc2c(C(=O)Nc3cnn(C(CCC#N)c4cccnc4)c3)n[nH]c2C1 (single isomer, unassigned) [Example 80b, N-(1-(3-cyano-1-(pyridin-3-yl)propyl)-1H-pyrazol-4-yl)-6,6-dimethyl-4,5,6,7-tetrahydro-1H-indazole-3-carboxamide]
7.77	CC1(C)CCc2c(C(=O)Nc3cnn(C(CO)c4cccnc4)c3)n[nH]c2C1 (single isomer, unassigned) [Example 81a, N-(1-(2-hydroxy-1-(pyridin-3-yl)ethyl)-1H-pyrazol-4-yl)-6,6-dimethyl-4,5,6,7-tetrahydro-1H-indazole-3-carboxamide]
8.52	CC1(C)CCc2c(C(=O)Nc3cnn(C(CO)c4cccnc4)c3)n[nH]c2C1 (single isomer, unassigned) [Example 81b, N-(1-(2-hydroxy-1-(pyridin-3-yl)ethyl)-1H-pyrazol-4-yl)-6,6-dimethyl-4,5,6,7-tetrahydro-1H-indazole-3-carboxamide]
7.34	CC(c1cscn1)n1cc(NC(=O)c2n[nH]c3c2CCC(C)(C)C3)cn1 (single isomer, unassigned) [Example 84a, 6,6-dimethyl-N-(1-(1-(thiazol-4-yl)ethyl)-1H-pyrazol-4-yl)-4,5,6,7-tetrahydro-1H-indazole-3-carboxamide]
7.89	CC(c1cscn1)n1cc(NC(=O)c2n[nH]c3c2CCC(C)(C)C3)cn1 (single isomer, unassigned) [Example 84b, 6,6-dimethyl-N-(1-(1-(thiazol-4-yl)ethyl)-1H-pyrazol-4-yl)-4,5,6,7-tetrahydro-1H-indazole-3-carboxamide]
10.00	CC1(C)CCc2c(C(=O)Nc3cnn(C(c4cccnc4)C4CCOCC4)c3)n[nH]c2C1 (single isomer, unassigned) [Example 88a, 6,6-dimethyl-N-(1-(pyridin-3-yl(tetrahydro-2H-pyran-4-yl)methyl)-1H-pyrazol-4-yl)-4,5,6,7-tetrahydro-1H-indazole-3-carboxamide]
9.15	CC1(C)CCc2c(C(=O)Nc3cnn(C(c4cccnc4)C4CCOCC4)c3)n[nH]c2C1 (single isomer, unassigned) [Example 88b, 6,6-dimethyl-N-(1-(pyridin-3-yl(tetrahydro-2H-pyran-4-yl)methyl)-1H-pyrazol-4-yl)-4,5,6,7-tetrahydro-1H-indazole-3-carboxamide]
9.70	CC1(C)CCc2c(C(=O)Nc3cnn(C(c4ccccc4)C4CS(=O)(=O)C4)c3)n[nH]c2C1 (single isomer, unassigned) [Example 89a]
8.40	CC1(C)CCc2c(C(=O)Nc3cnn(C(c4ccccc4)C4CS(=O)(=O)C4)c3)n[nH]c2C1 (single isomer, unassigned) [Example 89b]
7.96	CC(c1cnn(C)c1)n1cc(NC(=O)c2n[nH]c3c2CCC(C)(C)C3)cn1 (single isomer, unassigned) [Example 91a, 6,6-dimethyl-N-(1-(1-(1-methyl-1H-pyrazol-4-yl)ethyl)-1H-pyrazol-4-yl)-4,5,6,7-tetrahydro-1H-indazole-3-carboxamide]
7.72	CC(c1cnn(C)c1)n1cc(NC(=O)c2n[nH]c3c2CCC(C)(C)C3)cn1 (single isomer, unassigned) [Example 91b, 6,6-dimethyl-N-(1-(1-(1-methyl-1H-pyrazol-4-yl)ethyl)-1H-pyrazol-4-yl)-4,5,6,7-tetrahydro-1H-indazole-3-carboxamide]
8.15	CC(c1nccs1)n1cc(NC(=O)c2n[nH]c3c2CCC(C)(C)C3)cn1 (single isomer, unassigned) [Example 92a, 6,6-dimethyl-N-(1-(1-(thiazol-2-yl)ethyl)-1H-pyrazol-4-yl)-4,5,6,7-tetrahydro-1H-indazole-3-carboxamide]
8.00	CC(c1nccs1)n1cc(NC(=O)c2n[nH]c3c2CCC(C)(C)C3)cn1 (single isomer, unassigned) [Example 92b, 6,6-dimethyl-N-(1-(1-(thiazol-2-yl)ethyl)-1H-pyrazol-4-yl)-4,5,6,7-tetrahydro-1H-indazole-3-carboxamide]
